The numbers were not newly measured in PMC10410440, “Preclinical PK investigation of a novel IDO1/TDO dual inhibitor—SHR9146 in mouse plasma and tissues by LC-MS/MS” (Frontiers in Oncology, 2023), which cites them from elsewhere.

The subject of this data set is colon cancer (MC38) cells. More on the design: method as in earlier work. The following applies: SHR9146 combined with the PD-1 antibody vs single PD-1 antibody or SHR9146, and vs PD-1 antibody combined with INCB024360 or NLG0919100; cited from earlier work.

Structures are written as SMILES.

On to `OCCn1cc(-c2ccc(N3CCC([C@H]4c5c(F)cccc5-c5cncn54)CC3)cc2)cn1` [SHR9146], for which the “inhibitory effect on colon cancer (MC38) cells” value is listed as “significantly better inhibitory effect”.
